The numbers were not newly measured in US7589170B1, “Synthesis of cyclic peptides” (priority 1998, dated 2009), which cites them from elsewhere.

The conditions of this data set: as originally found for the isolate from Stylotella aurantium; cited from earlier work.

Structures are written as SMILES.

In the case of `CCC(C)[C@@H]1NC(=O)[C@H](C)NC(=O)C(CC(C)C)NC(=O)[C@H](CO)NC(=O)C(CC(N)=O)NC(=O)[C@H](Cc2ccccc2)NC(=O)[C@@H]2CCCN2C1=O` (stereo in doubt) [stylostatin, Cyclo-(Pro-Phe-Asn-Ser-Leu-Ala-Ile)], the cytotoxicity result was “highly cytotoxic”.
